Reference: patent publication EP0903343A1, “Alpha-Substituted phenylpropionic acid derivative and medicine containing the same” (SSP Co., Ltd., priority 1997, dated 1999)

The molecules below were run on db/db Mice (assay: Antidiabetic effect on diabetic model mice (blood glucose lowering)). Conditions: Mus musculus, po, 10 mg/kg/day orally once a day for 4 days, blood glucose 18 to 24 hours after final administration, vs control group, read-out: Percent reduction (%) of blood glucose.
Format: in vivo
Procedure: The α-substituted phenylpropionic acid derivatives (1) according to the present invention were used to conduct a test for evaluating their activities against model mice suffering from non-insulin dependent diabetes mellitus (NIDDM). Incidentally, pioglitazone was used as a comparative compound.
db/db Mice (Crea Co.; preliminarily rearing male mice aged 7 to 9 weeks for a week and using 4 or 5 mice having a blood glucose level of at least 300 mg/dl as a group) were used as subject animals. A predetermined amount of each of the compounds according to the present invention or the comparative compound was orally administered to the mice for 4 days once a day with the compound suspended in a 0.5% aqueous solution of sodium carboxymethyl cellulose. At 18 to 24 hours after the final administration, blood was collected from each of the subject animals to determine its blood glucose level (found value) by means of a simplified blood glucose meter, Mediace (manufactured by Terumo Corporation). On the other hand, the blood glucose level of a group of mice (control group) to which only a 0.5% aqueous solution of sodium carboxymethyl cellulose had been administered was also determined (control value).
On the basis of the thus-determined blood glucose level as to each of the compounds according to the present invention and the comparative compound, percent reduction of blood glucose was calculated out in accordance with the following equation. Percent reduction (%) = [(Control value - Found value)/(Control value)] x 100 [formula]
`CCOC(Cc1ccc(OCCn2nc(C)c3ccccc3c2=O)cc1)C(=O)O` (stereo not drawn) [Compound 1BC] showed an inhibition in vivo at 10 mg/kg/day of 50%.

Same assay, conditions: Mus musculus, po, 20 mg/kg/day orally once a day for 4 days, blood glucose 18 to 24 hours after final administration, vs control group, read-out: Percent reduction (%) of blood glucose
`CCc1ccc(CCOc2ccc(CC3SC(=O)NC3=O)cc2)nc1` (stereo not drawn) [Pioglitazone, pioglitazone, reference compound] showed an inhibition in vivo at 20 mg/kg/day of 26%.
`CCOC(=O)C(Cc1ccc(OCCn2nc(C)c3ccccc3c2=O)cc1)OCC` (stereo not drawn) [Compound 1BI, ethyl 2-ethoxy-3-{4-[2-(4-methyl-1-oxo-1,2-dihydrophthalazin-2-yl)ethoxy]phenyl}propanoate] showed an inhibition in vivo at 20 mg/kg/day of 52%.
`CCOC(Cc1ccc(OCCn2ccc3ccccc3c2=O)cc1)C(=O)O` (stereo not drawn) [Compound 1BS] gave an inhibition in vivo at 20 mg/kg/day of 60%.
Work on `CCOC(Cc1ccc(OCCn2ncc3ccccc3c2=O)cc1)C(=O)O` (stereo not drawn) [Compound 1B, 2-ethoxy-3-{4-[2-(1-oxo-1,2-dihydrophthalazin-2-yl)ethoxy]phenyl}propanoic acid] yielded an inhibition in vivo at 20 mg/kg/day of 43%.
`CCOC(Cc1ccc(OCCn2c(=O)c3ccc(C(F)(F)F)cc3n(C)c2=O)cc1)C(=O)O` (stereo not drawn) [Compound 1AR] gave an inhibition in vivo at 20 mg/kg/day of 38%.
`CCOC(Cc1ccc(OCCN2COc3ccccc3C2=O)cc1)C(N)=O` (stereo not drawn) [Compound 1J] showed an inhibition in vivo at 20 mg/kg/day of 73%.
Work on `CCOC(Cc1ccc(OCCn2ncc3ccccc3c2=O)cc1)C(=O)NO` (stereo not drawn) [Compound 1AA, 2-ethoxy-3-{4-[2-(1-oxo-1,2-dihydrophthalazin-2-yl)ethoxy]phenyl}propanohydroxamic acid] yielded an inhibition in vivo at 20 mg/kg/day of 48%.

Same assay, conditions: Mus musculus, po, 50 mg/kg/day orally once a day for 4 days, blood glucose 18 to 24 hours after final administration, vs control group, read-out: Percent reduction (%) of blood glucose
`CC(C)OC(Cc1ccc(OCCN2COc3ccccc3C2=O)cc1)C(N)=O` (stereo not drawn) [Compound 1N] gave an inhibition in vivo at 50 mg/kg/day of 72%.
Work on `CCOC(Cc1ccc(OCCn2ncc3ccccc3c2=O)cc1)C(N)=O` (stereo not drawn) [Compound 1A, 2-ethoxy-3-{4-[2-(1-oxo-1,2-dihydrophthalazin-2-yl)ethoxy]phenyl}propanamide] yielded an inhibition in vivo at 50 mg/kg/day of 73%.
In the case of `CCc1ccc(CCOc2ccc(CC3SC(=O)NC3=O)cc2)nc1` (stereo not drawn) [Pioglitazone, pioglitazone, reference compound], the inhibition in vivo at 50 mg/kg/day is reported as 44%.
`COC(Cc1ccc(OCCN2COc3ccccc3C2=O)cc1)C(N)=O` (stereo not drawn) [Compound 1P, 2-methoxy-3-{4-[2-(4-oxo-3,4-dihydro-2H-1,3-benzoxazin-3-yl)ethoxy]phenyl}propanamide] was tested, and the inhibition in vivo at 50 mg/kg/day was 66%.
`CCOC(Cc1ccc(CCn2cnc3ccccc3c2=O)cc1)C(N)=O` (stereo not drawn) [Compound 1Q, 2-ethoxy-3-{4-[2-(4-oxo-3,4-dihydroquinazolin-3-yl)ethyl]phenyl}propanamide] was tested, and the inhibition in vivo at 50 mg/kg/day was 49%.
For `CCOC(Cc1ccc(OCCN2COc3ccccc3C2=O)cc1)C(=O)O` (stereo not drawn) [Compound 1K], the inhibition in vivo at 50 mg/kg/day was 69%.
Work on `CCSC(Cc1ccc(OCCN2COc3ccccc3C2=O)cc1)C(=O)O` (stereo not drawn) [Compound 1O, 2-ethylthio-3-{4-[2-(4-oxo-3,4-dihydro-2H-1,3-benzoxazin-3-yl)ethoxy]phenyl}propanoic acid] yielded an inhibition in vivo at 50 mg/kg/day of 42%.
